Measured values: patent US4376765A, “Medicaments, their preparation and compositions containing same” (Institut International de Pathologie Cellulaire et …, priority 1980, dated 1983)
Each block holds one compound with its values, some of them ahead of it.

Legend:
[1] = tested on: lysosomal peptidase / purified lysosomal enzymes; assay: hydrolysis under conditions of lysosomal digestion (release of free drug); assay type: in vitro ADME; settings: for daunorubicine regenerated by the action of lysosomal peptidase: pH 6.0, aminoacid linked to daunorubicine
Excerpt: According to the invention, the arm is of peptidic nature and contains preferably 3 or 4 aminoacids. It is particularly important that the aminoacid being bound to the free amino function of the drug through its carboxylic function, has an asymmetric carbon atom and has the L-configuration because the peptidases or the lysosomal hydrolases only cut the peptidic bonds in the alpha position with respect to an asymmetric carbon. The aminoacid composing the peptidic spacer arm could be selected among the following L-aminoacids: α-aminobutyric acid, γ-aminobutyric acid, ε-aminocaproic acid, arginine, asparagine, aspartic acid, cysteic acid, cysteine, glutamine, glutamic acid, glycine, histidine, 4-hydroxyproline, […]. Of particular interest to play this function is L-leucine. […] In addition, a much higher rate of release of the free drug is obtained when the number of aminoacids making up the peptidic arm increases and may be as high as 78% when the intermediate peptide is made of a sequence of 4 aminoacids. Thus according to the invention, the intermediate "spacer arm" preferably is represented by the sequence

stability in the serum = assay type: in vitro ADME
Excerpt: According to the invention, the arm is of peptidic nature and contains preferably 3 or 4 aminoacids. It is particularly important that the aminoacid being bound to the free amino function of the drug through its carboxylic function, has an asymmetric carbon atom and has the L-configuration because the peptidases or the lysosomal hydrolases only cut the peptidic bonds in the alpha position with respect to an asymmetric carbon. The aminoacid composing the peptidic spacer arm could be selected among the following L-aminoacids: α-aminobutyric acid, γ-aminobutyric acid, ε-aminocaproic acid, arginine, asparagine, aspartic acid, cysteic acid, cysteine, glutamine, glutamic acid, glycine, histidine, 4-hydroxyproline, […]. Of particular interest to play this function is L-leucine.

L 1210 leukemia = assay: mice inoculated intraperitoneally with L 1210 leukemia, treated by intraperitoneal route; assay type: in vivo; settings: for activity against L 1210 leukemia in mice compared with daunorubicine or L-leucyl-daunorubicine: i.p. inoculation, i.p. treatment; for activity against L 1210 leukemia in mice compared with daunorubicine or L-leucyl-daunorubicine / toxicity compared with daunorubicine or L-leucyl-daunorubicine: equal doses expressed as daunorubicine; for toxicity compared with daunorubicine or L-leucyl-daunorubicine: mice, i.p.
L 1210 leukemia cells = assay: in vitro growth inhibition of L 1210 leukemia cells; assay type: cell-based; settings: 72 hours of culture; concentration near 10 μg/cm^3
Protocol: Thus the products in which the drug is daunorubicine inhibit in vitro the growth of cancerous cells such as cells of L 1210 leukemia in an appropriate medium. For example, after 72 hours of culture, BSA-succinyl-L-Ala-L-Leu-L-Ala-L-Leu-Daunorubicine at a concentration near 10 μg/cm^3, causes 90% of inhibition of the growth of L 1210 leukemia cells.

[2] = 5 mg/kg expressed as daunorubicine, mice with L 1210 leukemia

- daunorubicine regenerated by the action of lysosomal peptidase [1]: 60%
Compound: CC[C@H](C)[C@H](N)C(=O)O [L-isoleucine]

- daunorubicine regenerated by the action of lysosomal peptidase [1]: 70%
Compound: N[C@@H](Cc1ccc(O)cc1)C(=O)O [L-tyrosine]

- stability in the serum (stability in the serum): stable in the serum
- regeneration of the free drug when submitted to lysosomal digestion [1]: regenerate rapidly the free drug
- free daunorubicine released ([1]; two hours hydrolysis at pH 4.5, lysosomal digestion): 65%
- free daunorubicine released ([1]; two hours hydrolysis at pH 6.0, lysosomal digestion): 90%
Compound: COc1cccc2c1C(=O)c1c(O)c3c(c(O)c1C2=O)C[C@@](O)(C(C)=O)C[C@@H]3O[C@H]1C[C@H](NC(=O)[C@@H](N)CC(C)C)[C@H](O)[C@H](C)O1 [N-L-leucyl-daunorubicine]

- stability in the serum (stability in the serum): stable in the serum
- regeneration of the free drug when submitted to lysosomal digestion [1]: regenerate rapidly the free drug
Compound: COc1cccc2c1C(=O)c1c(O)c3c(c(O)c1C2=O)C[C@@](O)(C(=O)CO)C[C@@H]3O[C@H]1C[C@H](NC(=O)[C@@H](N)CC(C)C)[C@H](O)[C@H](C)O1 [N-L-leucyl-doxorubicine]

- stability in the serum (stability in the serum): stable in the serum
- regeneration of the free drug when submitted to lysosomal digestion [1]: regenerate rapidly the free drug
Compound: COc1cc(NC(C)CCCNC(=O)[C@@H](N)CC(C)C)c2ncccc2c1 (stereo partly drawn) [N-L-leucyl-primaquine]

Compound: COc1cccc2c1C(=O)c1c(O)c3c(c(O)c1C2=O)C[C@@](O)(C(C)=O)C[C@@H]3O[C@H]1C[C@H](N)[C@H](O)[C@H](C)O1 [daunorubicine, reference compound]
- increase of life span (ILS) (L 1210 leukemia; [2]): about 7%
- toxicity at the dose (L 1210 leukemia; 5 mg/kg, mice with L 1210 leukemia): already toxic at that dose

Compound: BSA-succinyl-L-Ala-L-Leu-L-Ala-L-Leu-Daunorubicine: succinyl-alanyl-leucyl-alanyl-leucyl-daunorubicine coupled with bovine serum albumin
- inhibition of the growth of L 1210 leukemia cells (L 1210 leukemia cells): 90%
- activity against L 1210 leukemia in mice compared with daunorubicine or L-leucyl-daunorubicine (L 1210 leukemia): markedly better activity than that of daunorubicine or L-leucyl-daunorubicine
- toxicity compared with daunorubicine or L-leucyl-daunorubicine (L 1210 leukemia): less toxicity

Compound: fetuine-succinyl-L-Ala-L-Leu-L-Ala-L-Leu-daunorubicine: succinylated fetuine coupled with L-alanyl-L-leucyl-L-alanyl-L-leucyl-daunorubicine
- increase of life span (ILS) (L 1210 leukemia; [2]): ~194%
- surviving mice after 30 days of observation (L 1210 leukemia; 5 mg/kg expressed as daunorubicine, of 10 mice): 8
- activity against L 1210 leukemia in mice compared with daunorubicine or L-leucyl-daunorubicine (L 1210 leukemia): markedly better activity than that of daunorubicine or L-leucyl-daunorubicine
- toxicity compared with daunorubicine or L-leucyl-daunorubicine (L 1210 leukemia): less toxicity
